Measurements reported in patent US20100178330A1, “ASYMMETRIC LIPOSOMES AND USES IN MEDICAL FIELD THEREOF” (priority 2007, published 2010).

Legend:
[1] = tested on: M. tuberculosis H37Rv infected dTHP-1 cells; assay: Phagolysosome maturation: mycobacteria in LAMP-1 expressing compartments (anti-LAMP-1 / auramin confocal microscopy); type: cell-based; conditions: EGTA added to cells stimulated with PS/PA liposomes; FIG. 8
[2] = tested on: M. tuberculosis H37Rv infected dTHP-1 cells; assay: Phagolysosome maturation: mycobacteria in acid compartments (Lyso Tracker Red / auramin confocal microscopy); type: cell-based; conditions: 3 mM EGTA added to cells stimulated with PS/PA liposomes; FIG. 7

For `O=C(O)CN(CCOCCOCCN(CC(=O)O)CC(=O)O)CC(=O)O` [EGTA], the “effect on PS/PA liposome induced phagolysosome maturation (LAMP-1)” value [1] was “inhibits” and the “effect on PS/PA liposome induced phagosome acidification” value [2] was “inhibits the acidification process of phagosome restoring the initial conditions”.
